Where a name gives a salt, the structure may show the parent alone.

The target in the test is T1, σ1-receptor (Cavia porcellus, UniProt Q60492).
T1 construct: Guinea pig brains were homogenized in 10 vols; (w/v) of Tris-HCl 50 mM 0.32 M sucrose; from tissue; host or cells: guinea pig brain membranes
T1 sequence (Q60492 whole entry): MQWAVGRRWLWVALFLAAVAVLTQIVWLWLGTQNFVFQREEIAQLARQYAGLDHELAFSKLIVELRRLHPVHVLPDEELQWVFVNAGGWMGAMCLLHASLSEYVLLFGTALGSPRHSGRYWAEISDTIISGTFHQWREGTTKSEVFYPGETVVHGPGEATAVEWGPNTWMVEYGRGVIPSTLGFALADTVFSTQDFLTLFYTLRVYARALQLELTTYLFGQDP
Description: σ1-receptor binding assay, [3H]-(+)-pentazocine, guinea pig brain membranes. The settings on record: radioligand [3H]-(+)-pentazocine at 5.0 nM; guinea pig brain membrane; 150 min at 37° C.; nonspecific binding with 1 μM haloperidol. The procedure:
Brain membrane preparation and binding assays for the σ1-receptor were performed as described (DeHaven-Hudkins, D. L., L. C. Fleissner, and F. Y. Ford-Rice, 1992, Characterization of the binding of [^3H](+)pentazocine to σ recognition sites in guinea pig brain, Eur. J. Pharmacol. 227, 371-378) with some modifications. Guinea pig brains were homogenized in 10 vols. (w/v) of Tris-HCl 50 mM 0.32 M sucrose, pH 7.4, with a Kinematica Polytron PT 3000 at 15000 r.p.m. for 30 s. The homogenate was centrifuged at 1000 g for 10 min at 4° C. and the supernatants collected and centrifuged again at 48000 g for 15 min at 4° C. The pellet was resuspended in 10 volumes of Tris-HCl buffer (50 mM, pH 7.4), incubated at 37° C. for 30 min, and centrifuged at 48000 g for 20 min at 4° C. Following this, the pellet was re-suspended in fresh Tris-HCl buffer (50 mM, pH 7.4) and stored on ice until use.
The radioligand used was [^3H]-(+)-pentazocine at 5.0 nM and the final volume was 200 μl. The incubation was initiated with the addition of 100 μl of membrane at a final tissue concentration of approximately 5 mg tissue net weight/mL and the incubation time was 150 m. at 37° C. After incubation, the membranes were collected onto pretreated glass fiber filterplate (MultiScreen-FC, Millipore), with polyethylenimine 0.1%. The filters were washed two times with 200 μl of washing buffer (50 mM Tris Cl, pH=7.4) and then 25 μl of Ecoscint H liquid scintillation cocktail were added. Microplates were allowed to set for several hours and then quantified by liquid scintillation spectrophotometry (1450 Microbeta, Wallac). Nonspecific binding was determined with 1 μM haloperidol.
Broadly, the Ki is a measure of affinity in units of concentration, obtained from inhibition or displacement. Read a high Ki as lower affinity. As to `CC(C)(C)C1CCN(CCCCOc2nn3c(c2Cl)CCCC3)CC1` [Example 105, 2-(4-(4-tert-butylpiperidin-1-yl)butoxy)-3-chloro-4,5,6,7-tetrahydropyrazolo[1,5-a]pyridine maleate], the Ki turned out to be 13.3 nM.
Compound `CN(CCOc1nn2ccccc2c1I)Cc1ccccc1` [Example 106, N-benzyl-2-(3-iodopyrazolo[1,5-a]pyridin-2-yloxy)-N-methylethanamine oxalate] returned a Ki of 5.8 nM.
`CN(CCOc1nn2c(c1I)CCCC2)Cc1ccccc1` [Example 107, N-benzyl-2-(3-iodo-4,5,6,7-tetrahydropyrazolo[1,5-a]pyridin-2-yloxy)-N-methylethanamine oxalate] registered an inhibitory constant (Ki) of 2.95 nM.
The same measure for `Clc1c(OCCCCN2CCN(C3CCCCC3)CC2)nn2c1CCCC2` [Example 108, 3-chloro-2-(4-(4-cyclohexylpiperazin-1-yl)butoxy)-4,5,6,7-tetrahydropyrazolo[1,5-a]pyridine]: 11.4 nM.

(Values after US9487513B2, “Substituted pyrazolo[1,5-A]pyridines, their preparation and use as medicaments” (LABORATORIOS DEL DR. ESTEVE S.A., priority 2012, dated 2016).)
